1 compound from patent US20050037436A1, “Test systems and the use thereof for identifying and characterizing compounds” (priority 2000, published 2005) can be followed below.

One assay relates to HC110-R. The assay is described as follows: Ca2+ imaging of HEK-293 cells expressing HC110-R-Myc/His. In kind it is cell-based, Haemonchus contortus. Particulars: stably expressing cells; 400 ng/ml added 6 min before 75 nM α-LTX.
Assay [1] has as its system untransfected HEK-293 cells. The assay is described as follows: Ca2+ imaging of untransfected or GFP-transfected HEK-293 cells (control). In kind it is cell-based, human. How it is done:
The intracellular free Ca^2+ concentration [Ca^2+]i was measured in COS-7 and HEK293 cells transiently transfected with the HC110-R-EGFP or β2-AR-EGFP construct using the calcium imaging method (see also FIG. 11). In each case 2×10^5 COS-7 and HEK293 cells were applied to a 42 mm cover glass coated with 1% gelatine in 55 mm tissue culture dishes with 5 ml of DMEM medium (with 10% FCS and pen/strep). The transfection took place with the aid of the non-liposomal transfection reagent FuGENE 6 (Roche Molecular Biochemicals, Mannheim). […] Constructs of the HC110-R full-length clone with a GFP tag fused in the correct reading frame, and the complete cDNA of the β2-adrenergic receptor which had likewise been provided with a GFP tag at the 3′ end, were transfected. […]
Loading of the cells with 1 μM Fura-2/acetoxymethyl ester (Fura-2/AM) (Sigma, Deisenhofen) took place 48 h after the transfection in an Na^+-HBS solution (150 mM NaCl; 5.4 mM KCl; 1.8 mM CaCl2; 0.8 mM MgSO4 7H2O; 20 mM glucose; 20 mM Hepes in H2O, pH 7.3) at 37° C., 5% CO2 and 95% humidity for 30 min. After the incubation, the cells loaded with Fura-2/AM were examined under an inverted microscope (Zeiss, Axiovert, Germany) and, in parallel with this, in a digital imaging fluorescence microscope (PTI) and differentiated into transfected and untransfected cells at a wavelength of 440 and 490 nm respectively. […]

As for `CC(C)C[C@H]1C(=O)O[C@H](Cc2ccc(N3CCOCC3)cc2)C(=O)N(C)[C@@H](CC(C)C)C(=O)O[C@H](C)C(=O)N(C)[C@@H](CC(C)C)C(=O)O[C@H](Cc2ccc(N3CCOCC3)cc2)C(=O)N(C)[C@@H](CC(C)C)C(=O)O[C@H](C)C(=O)N1C` [BAY44-4400, cyclo(-D-Lac-L-MeLeu-D-p-morpholinyl-PhLac-L-MeLeu-)], the “α-LTX-induced increase in [Ca2+]i in presence of substance” value in the assay on HC110-R was “complete inhibition”. Besides, the “changes caused by substance” value in assay [1] was “causes no changes in untransfected cells”.
